The structures appear in SMILES notation. Read-outs that look alike come from different tables or passages of the source. Some results are limits rather than exact numbers.

The values below come from patent US8129371B2, “Thienopyrimidine and pyrazolopyrimidine compounds and their use as mTOR kinase and PI3 kinase inhibitors” (Wyeth LLC, priority 2007, dated 2012).

For one assay, the target named is T1, Human mTOR (FLAG-TOR) (Homo sapiens, UniProt P42345).
T1 construct: FLAG
In words: Human mTOR kinase assay with purified enzyme, DELFIA format. Format: biochemical. An outline of the steps:
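Purified FLAG-mTOR in HEPES pH 7.4 buffer with 10 mM MnCl2 was preincubated with inhibitor and reacted 2 h at room temperature with His6-S6K substrate, then stopped with EDTA/EGTA. Phospho-T389 S6K detected by DELFIA with Eu-labelled antibody (40 ng/mL) after plate capture; inhibition computed from signal.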

The test system of a further assay is prostate line LNCap. In words: In vitro cell culture growth assay (MTS), LNCap. Type of assay: cell-based. The note with it: Homo sapiens, LNCaP, 72 h, LNCap cells, three days after drug treatment. The method in brief:
(§1)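 Cells were plated and, one day later, treated with inhibitors. Three days after treatment, viable cell density was measured by MTS dye conversion, read as absorbance at 490 nm. Effects are expressed as percent of control growth versus vehicle-treated cells on the same plate.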

The target in assay [1] is T2, PI3K (Homo sapiens, UniProt P42336).
T2 construct: PI3 Kinase α IC50; other: PI3 Kinase α; other: PI3 Kinase α isoform, fluorescence polarization
In words: Fluorescence polarization assay for PI3K. Type of assay: biochemical. The note with it: read-out: PI3 Kinase α IC50. An outline of the steps: (§2)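 PI3K was preincubated with compound (final DMSO 1%), and the reaction was started with PIP2/ATP substrate and run 30–60 min. It was stopped with a detector mix giving 10 nM red probe and 70 nM GST-GRP.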

Assay [2] has as its target T3, PI3K (Homo sapiens, UniProt P48736).
T3 construct: PI3 Kinase γ IC50; other: PI3 Kinase γ; other: PI3 Kinase γ isoform, fluorescence polarization
In words: Fluorescence polarization assay for PI3K. Format: biochemical. The note with it: read-out: PI3 Kinase γ IC50. The method in brief: as §2

The test system of a further assay is breast line MDA468. In words: In vitro cell culture growth assay (MTS), MDA468. Format: cell-based. The note with it: Homo sapiens, 72 h, MDA468 cells, three days after drug treatment. The method in brief: as §1
[3] abbreviates: purified human mTOR enzyme, DELFIA format.
Setting [4] is: PI3 Kinase α isoform, fluorescence polarization.
[5] abbreviates: PI3 Kinase γ isoform, fluorescence polarization.

T2 sequence (P42336 whole entry, canonical isoform): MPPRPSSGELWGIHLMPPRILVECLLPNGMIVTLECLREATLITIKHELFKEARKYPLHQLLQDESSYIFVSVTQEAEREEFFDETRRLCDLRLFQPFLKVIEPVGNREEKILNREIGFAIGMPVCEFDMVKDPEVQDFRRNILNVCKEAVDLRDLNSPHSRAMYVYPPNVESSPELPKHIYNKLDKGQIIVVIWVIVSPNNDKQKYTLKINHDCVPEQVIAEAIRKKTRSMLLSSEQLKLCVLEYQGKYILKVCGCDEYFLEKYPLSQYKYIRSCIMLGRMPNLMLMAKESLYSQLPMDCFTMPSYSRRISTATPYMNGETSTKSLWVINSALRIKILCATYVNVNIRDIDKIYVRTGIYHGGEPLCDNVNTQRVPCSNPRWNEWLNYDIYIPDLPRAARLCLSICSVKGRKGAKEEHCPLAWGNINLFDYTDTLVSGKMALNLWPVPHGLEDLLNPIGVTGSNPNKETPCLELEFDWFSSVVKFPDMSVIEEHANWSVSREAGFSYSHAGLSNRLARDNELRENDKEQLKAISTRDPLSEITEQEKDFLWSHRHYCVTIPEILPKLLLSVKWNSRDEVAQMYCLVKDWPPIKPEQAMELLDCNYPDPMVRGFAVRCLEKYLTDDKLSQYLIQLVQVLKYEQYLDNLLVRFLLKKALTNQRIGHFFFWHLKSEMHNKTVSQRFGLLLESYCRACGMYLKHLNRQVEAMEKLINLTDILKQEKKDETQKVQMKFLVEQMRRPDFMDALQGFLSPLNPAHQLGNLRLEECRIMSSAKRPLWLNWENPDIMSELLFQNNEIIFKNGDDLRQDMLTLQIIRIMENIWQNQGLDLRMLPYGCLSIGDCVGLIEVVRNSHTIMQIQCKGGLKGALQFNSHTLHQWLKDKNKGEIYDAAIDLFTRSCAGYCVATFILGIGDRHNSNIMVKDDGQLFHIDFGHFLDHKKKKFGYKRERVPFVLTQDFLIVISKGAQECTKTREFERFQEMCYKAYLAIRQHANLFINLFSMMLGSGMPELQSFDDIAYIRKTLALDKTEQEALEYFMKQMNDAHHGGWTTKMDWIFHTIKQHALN
T3 sequence (P48736 whole entry, canonical isoform): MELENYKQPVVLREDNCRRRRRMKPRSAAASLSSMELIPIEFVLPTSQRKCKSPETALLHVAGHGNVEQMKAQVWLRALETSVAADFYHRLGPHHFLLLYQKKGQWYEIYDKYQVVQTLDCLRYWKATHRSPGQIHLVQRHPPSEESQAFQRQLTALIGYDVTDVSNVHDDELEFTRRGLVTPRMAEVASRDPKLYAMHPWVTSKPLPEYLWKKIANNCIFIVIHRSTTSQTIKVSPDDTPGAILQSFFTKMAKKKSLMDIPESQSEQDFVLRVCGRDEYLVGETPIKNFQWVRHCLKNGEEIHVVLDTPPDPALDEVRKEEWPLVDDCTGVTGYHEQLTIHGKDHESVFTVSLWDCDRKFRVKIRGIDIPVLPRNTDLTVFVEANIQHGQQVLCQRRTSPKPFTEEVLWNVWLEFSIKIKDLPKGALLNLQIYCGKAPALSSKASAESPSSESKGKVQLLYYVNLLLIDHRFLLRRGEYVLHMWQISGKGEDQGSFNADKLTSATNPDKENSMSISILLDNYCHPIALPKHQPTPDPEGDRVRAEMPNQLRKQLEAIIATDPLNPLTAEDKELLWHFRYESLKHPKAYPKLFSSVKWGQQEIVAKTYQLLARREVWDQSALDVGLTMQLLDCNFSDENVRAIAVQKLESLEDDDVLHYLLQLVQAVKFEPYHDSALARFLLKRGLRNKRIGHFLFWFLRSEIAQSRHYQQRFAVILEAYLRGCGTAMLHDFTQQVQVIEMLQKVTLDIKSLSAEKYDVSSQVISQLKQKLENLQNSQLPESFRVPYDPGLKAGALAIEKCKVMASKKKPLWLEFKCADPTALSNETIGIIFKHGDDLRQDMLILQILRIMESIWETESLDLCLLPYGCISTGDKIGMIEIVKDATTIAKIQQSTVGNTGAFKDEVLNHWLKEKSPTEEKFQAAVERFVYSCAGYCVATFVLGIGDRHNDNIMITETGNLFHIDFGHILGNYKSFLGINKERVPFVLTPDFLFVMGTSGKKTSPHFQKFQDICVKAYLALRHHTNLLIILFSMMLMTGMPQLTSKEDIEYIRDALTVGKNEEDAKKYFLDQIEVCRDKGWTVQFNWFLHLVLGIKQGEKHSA

As to `CCn1ncc2c(N3CC4CCC(C3)O4)nc(-c3ccc(NC(=O)Nc4ccc(N5CCOCC5)cc4)cc3)nc21` [Example 181, 1-{4-[1-ethyl-4-(8-oxa-3-azabicyclo[3.2.1]oct-3-yl)-1H-pyrazolo[3,4-d]pyrimidin-6-yl]phenyl}-3-(4-morpholin-4-ylphenyl)urea], the IC50 was 0.18 nM at Human mTOR (FLAG-TOR); < 1 nM with prostate line LNCap; 175 nM on PI3K [1] (PI3 Kinase α); 3670 nM on PI3K [2] (PI3 Kinase γ); < 1 nM in the assay on breast line MDA468.
On to `CN(C)CCn1ncc2c(N3CC4CCC(C3)O4)nc(-c3ccc(NC(=O)Nc4ccccc4)cc3)nc21` [Example 156, 1-(4-{1-[2-(dimethylamino)ethyl]-4-(8-oxa-3-azabicyclo[3.2.1]oct-3-yl)-1H-pyrazolo[3,4-d]pyrimidin-6-yl}phenyl)-3-phenylurea], for which the IC50 at Human mTOR (FLAG-TOR) was determined as 2.65 nM; with prostate line LNCap, 1 nM; on PI3K [1] (PI3 Kinase α) it was 160 nM; at PI3K [2] (PI3 Kinase γ), 1530 nM; in the assay with breast line MDA468, 68 nM.
For the compound `CN1CCN(C2CCC(n3ncc4c(N5CC6CCC(C5)O6)nc(-c5ccc(NC(=O)Nc6ccccc6)cc5)nc43)CC2)CC1` (stereo not drawn) [Example 373, 1-(4-{1-[4-(4-methylpiperazin-1-yl)cyclohexyl]-4-(8-oxa-3-azabicyclo[3.2.1]oct-3-yl)-1H-pyrazolo[3,4-d]pyrimidin-6-yl}phenyl)-3-phenylurea], the IC50 against Human mTOR (FLAG-TOR) (setting [3]) was determined as 0.385 nM; in the assay with prostate line LNCap it was 220 nM; on PI3K [1] (setting [4]) it was 217 nM; at PI3K [2] (setting [5]), 1120 nM; in the assay on breast line MDA468 it was 200 nM.
On to `CCn1ncc2c(N3CC4CCC(C3)O4)nc(-c3ccc(NC(=O)NCC(=O)NCCN(C)C)cc3)nc21` [Example 278], for which the IC50 at Human mTOR (FLAG-TOR) is 42 nM; in the assay with prostate line LNCap, 2200 nM; on PI3K [1] (PI3 Kinase α), 311 nM; on PI3K [2] (PI3 Kinase γ) it was 494 nM; in the assay with breast line MDA468 it was 5200 nM.
Take `CNC(=O)Nc1ccc(-c2nc(N3CC4CCC(C3)O4)c3cnn(C4CCC5(CC4)OCC(C)(C)CO5)c3n2)cc1` [Example 152, 1-{4-[1-(3,3-dimethyl-1,5-dioxaspiro[5.5]undec-9-yl)-4-(8-oxa-3-azabicyclo[3.2.1]oct-3-yl)-1H-pyrazolo[3,4-d]pyrimidin-6-yl]phenyl}-3-methylurea]: the 50% inhibitory concentration (IC50) at Human mTOR (FLAG-TOR) is 0.6 nM; in the assay on prostate line LNCap, 3 nM; at PI3K [1] (PI3 Kinase α), 566 nM; at PI3K [2] (PI3 Kinase γ), > 10000 nM; in the assay on breast line MDA468, 180 nM.
The matching figures for `CCn1ncc2c(N3CC4CCC(C3)O4)nc(-c3ccc(NC(=O)NCCN4CCN(C)CC4)cc3)nc21` [Example 178, 1-{4-[1-ethyl-4-(8-oxa-3-azabicyclo[3.2.1]oct-3-yl)-1H-pyrazolo[3,4-d]pyrimidin-6-yl]phenyl}-3-[2-(4-methylpiperazin-1-yl)ethyl]urea]: 87 nM, 1900 nM, 959 nM, > 10000 nM and 5800 nM.
In the case of `Oc1cccc(-c2nc(N3CC4CCC(C3)O4)c3cnn(-c4ccccc4)c3n2)c1` [Example 102, 3-[4-(8-oxa-3-azabicyclo[3.2.1]oct-3-yl)-1-phenyl-1H-pyrazolo[3,4-d]pyrimidin-6-yl]phenol], the half-inhibitory concentration (IC50) was found to be 16 nM at Human mTOR (FLAG-TOR); 1300 nM in the assay with prostate line LNCap; 1170 nM on PI3K [1] (PI3 Kinase α); 7820 nM on PI3K [2] (PI3 Kinase γ); 5000 nM in the assay with breast line MDA468.
For `O=C(Nc1ccc(CO)cc1)Nc1ccc(-c2nc(N3C[C@@H]4C[C@H]3CO4)c3cnn(CC(F)(F)F)c3n2)cc1` [Example 294, 1-[4-(hydroxymethyl)phenyl]-3-(4-{4-[(1S,4S)-2-oxa-5-azabicyclo[2.2.1]hept-5-yl]-1-(2,2,2-trifluoroethyl)-1H-pyrazolo[3,4-d]pyrimidin-6-yl}phenyl)urea] the same measures were 0.775 nM, < 1 nM, 220 nM, 3020 nM and 1 nM.
Regarding `CCn1ncc2c(N3CC4CCC(C3)O4)nc(-c3ccc(NC(=O)NCC(=O)N4CCN(C)CC4)cc3)nc21` [Example 276, 1-{4-[1-ethyl-4-(8-oxa-3-azabicyclo[3.2.1]oct-3-yl)-1H-pyrazolo[3,4-d]pyrimidin-6-yl]phenyl}-3-[2-(4-methylpiperazin-1-yl)-2-oxoethyl]urea], the half-inhibitory concentration (IC50) is 93 nM against Human mTOR (FLAG-TOR); 7500 nM in the assay on prostate line LNCap; 3980 nM at PI3K [1] (PI3 Kinase α); 9000 nM at PI3K [2] (PI3 Kinase γ); 30000 nM in the assay on breast line MDA468.
With `CCNC(=O)Nc1ccc(-c2nc(N3CC4CCC(C3)O4)c3cnn(C(COC)COC)c3n2)cc1` [Example 320, 1-ethyl-3-(4-{1-[2-methoxy-1-(methoxymethyl)ethyl]-4-(8-oxa-3-azabicyclo[3.2.1]oct-3-yl)-1H-pyrazolo[3,4-d]pyrimidin-6-yl}phenyl)urea], the IC50 against Human mTOR (FLAG-TOR) (setting [3]) is 9.1 nM; in the assay on prostate line LNCap, 160 nM; at PI3K [1] (setting [4]), 1950 nM; at PI3K [2] (setting [5]), > 10000 nM; in the assay with breast line MDA468, 590 nM.
Turning to `CCn1ncc2c(N3CC4CCC(C3)O4)nc(-c3ccc(NC(=O)Nc4ccc(C#N)cc4)cc3)nc21` [Example 190, 1-(4-cyanophenyl)-3-{4-[1-ethyl-4-(8-oxa-3-azabicyclo[3.2.1]oct-3-yl)-1H-pyrazolo[3,4-d]pyrimidin-6-yl]phenyl}urea], the IC50 against Human mTOR (FLAG-TOR) stood at 0.505 nM; in the assay with prostate line LNCap it was 4 nM; on PI3K [1] (PI3 Kinase α) it was 542 nM; at PI3K [2] (PI3 Kinase γ), 3050 nM; with breast line MDA468, 33 nM.
The matching figures for `CN1CCN(c2ccc(NC(=O)Nc3ccc(-c4nc(N5CC6CCC(C5)O6)c5cnn(CCO)c5n4)cc3)cn2)CC1` [Example 205, 1-{4-[1-(2-hydroxyethyl)-4-(8-oxa-3-azabicyclo[3.2.1]oct-3-yl)-1H-pyrazolo[3,4-d]pyrimidin-6-yl]phenyl}-3-[6-(4-methylpiperazin-1-yl)pyridin-3-yl]urea]: 1.7 nM, 90 nM, 202 nM, 3570 nM and 80 nM.
For the compound `CN1CCN(c2ccc(NC(=O)Nc3ccc(-c4nc(N5C[C@H]6C[C@@H]5CO6)c5cnn(CC(F)(F)F)c5n4)cc3)cc2)CC1` [Example 345, 1-[4-(4-methylpiperazin-1-yl)phenyl]-3-(4-{4-[(1R,4R)-2-oxa-5-azabicyclo[2.2.1]hept-5-yl]-1-(2,2,2-trifluoroethyl)-1H-pyrazolo[3,4-d]pyrimidin-6-yl}phenyl)urea], the IC50 against Human mTOR (FLAG-TOR) (setting [3]) was 38.5 nM; in the assay with prostate line LNCap, 190 nM; on PI3K [1] (setting [4]), 1920 nM; on PI3K [2] (setting [5]), > 10000 nM; with breast line MDA468 it was 450 nM.
Regarding `COC(=O)Nc1ccc(-c2nc(N3CC4CCC(C3)O4)c3cnn(C(C)(C)C)c3n2)cc1` [Example 92], the IC50 against Human mTOR (FLAG-TOR) was 11.7 nM; with prostate line LNCap it was 1800 nM; on PI3K [1] (PI3 Kinase α), > 10000 nM; at PI3K [2] (PI3 Kinase γ), > 10000 nM; in the assay with breast line MDA468, 30000 nM.
For `CCNC(=O)Nc1ccc(-c2nc(N3CC4CCC(C3)O4)c3cnn(C4CCN(C(=O)OC)CC4)c3n2)cc1` [Example 9, methyl 4-[6-{4-[(ethylcarbamoyl)amino]phenyl}-4-(8-oxa-3-azabicyclo[3.2.1]oct-3-yl)-1H-pyrazolo[3,4-d]pyrimidin-1-yl]piperidine-1-carboxylate], the IC50 against Human mTOR (FLAG-TOR) is 0.22 nM; in the assay with prostate line LNCap it was 9 nM; on PI3K [1] (PI3 Kinase α), 5330 nM; at PI3K [2] (PI3 Kinase γ), > 10000 nM; in the assay with breast line MDA468, 180 nM.
With `COCC(COC)n1ncc2c(N3CC4CCC(C3)O4)nc(-c3ccc(NC(=O)Nc4ccc(C(=O)NN(C)C)cc4)cc3)nc21` [Example 336, 1-{4-[(2,2-dimethylhydrazino)carbonyl]phenyl}-3-(4-{1-[2-methoxy-1-(methoxymethyl)ethyl]-4-(8-oxa-3-azabicyclo[3.2.1]oct-3-yl)-1H-pyrazolo[3,4-d]pyrimidin-6-yl}phenyl)urea], the IC50 against Human mTOR (FLAG-TOR) (setting [3]) was 2.75 nM; in the assay on prostate line LNCap, < 1 nM; on PI3K [1] (setting [4]), 666 nM; at PI3K [2] (setting [5]) it was > 10000 nM; with breast line MDA468 it was 4 nM.
For `CCOC(=O)N1CCC(n2ncc3c(N4CC5CCC(C4)O5)nc(-c4ccc(NC(=O)Nc5ccncc5)cc4)nc32)CC1` [Example 35, ethyl 4-[4-(8-oxa-3-azabicyclo[3.2.1]oct-3-yl)-6-{4-[(pyridin-4-ylcarbamoyl)amino]phenyl}-1H-pyrazolo[3,4-d]pyrimidin-1-yl]piperidine-1-carboxylate], the IC50 against Human mTOR (FLAG-TOR) is 0.34 nM; with prostate line LNCap it was < 0.8 nM; at PI3K [1] (PI3 Kinase α) it was 291 nM; at PI3K [2] (PI3 Kinase γ), 1800 nM; in the assay on breast line MDA468, 9 nM.
For `O=C(Nc1ccncc1)Nc1ccc(-c2nc(N3CC4CCC(C3)O4)c3cnn(C4CCC5(CC4)OCCO5)c3n2)cc1` [Example 128, 1-{4-[1-(1,4-dioxaspiro[4.5]dec-8-yl)-4-(8-oxa-3-azabicyclo[3.2.1]oct-3-yl)-1H-pyrazolo[3,4-d]pyrimidin-6-yl]phenyl}-3-pyridin-4-ylurea] the same measures were 0.125 nM, < 1 nM, 220 nM, 1930 nM and 1 nM.
